In a melting point compilation (Tetko et al.):
Residues, ends and D or L forms follow the SMILES beside them. *: point of attachment. Trt = c1ccc(C(c2ccccc2)(c2ccccc2)*)cc1; Boc = CC(C)(C)OC(=O)*

| SMILES | melting point |
| --- | --- |
| COC(=O)C(Cc1ccccc1)NC(=O)C(Cc1ccccc1)NC(=O)C(CC(N)=O)NC(=O)C(CCCCNC(=O)OC(C)(C)C)NC(=O)C(CSC(c1ccccc1)(c1ccccc1)c1ccccc1)NC(=O)CNC(=O)C(C)NC(=O)CNC(=O)CNC(=O)C(CC(C)C)NC(=O)OC(C)(C)C (stereo not drawn) (Boc-LGGAGC(Trt)K(Boc)NFF-OMe; configuration not given here) | 238 to 240 °C |
| Clc1c(Br)c(Cl)c(COCc2c(Cl)c(Br)c(Cl)c(Br)c2Br)c(Br)c1Br | 274 to 276 °C |
| C=Cc1cc(C=Cc2cc(C=Cc3cc(C(C)(C)C)cc(C(C)(C)C)c3)cc(C=Cc3cc(C(C)(C)C)cc(C(C)(C)C)c3)c2)cc(C=Cc2cc(C=Cc3cc(C(C)(C)C)cc(C(C)(C)C)c3)cc(C=Cc3cc(C(C)(C)C)cc(C(C)(C)C)c3)c2)c1 | 272 to 275 °C |
| COC(=O)Nc1cc(C(/C=C/c2c(OC)cc(OC)cc2OC)S(=O)(=O)C(/C=C/c2c(OC)cc(OC)cc2OC)c2ccc(OC)c(NC(=O)OC)c2)ccc1OC (stereo not drawn) | 188 to 191 °C |
| C1CCC2NCCC2C1 (stereo not drawn) | 85 °C |
| CC(=O)C1CCC2C3CCC4CC(O)(C#Cc5cccnc5)CCC4(C)C3CCC12C (stereo not drawn) | 230 to 235 °C |
| CC[C@H](C)[C@H](NC(=O)OCC1c2ccccc2-c2ccccc21)C(=O)N[C@@H](Cc1ccc(OC(C)(C)C)cc1)C(=O)N[C@@H](C)C(=O)NCc1c(OC)ccc2c1Oc1c(ccc(OC)c1CC(=O)OCc1ccccc1)C2(C)C | 218 to 220 °C |
| CC(CCC(=O)O)C1CCC2C3C(O)CC4CC(NC(=O)CNC(=O)CN(CCN(CC(=O)O)CC(=O)O)CCN(CC(=O)O)CC(=O)O)CCC4(C)C3CC(O)C12C (stereo not drawn) | 120 to 125 °C |
| CCCCCCCCCCCCCCCCCCN(Cc1c(C)cc(C(C)(C)C)c(O)c1C)S(=O)(=O)c1ccc(-c2ccc(S(=O)(=O)N(CCCCCCCCCCCCCCCCCC)Cc3c(C)cc(C(C)(C)C)c(O)c3C)cc2)cc1 | 208 to 210 °C |
| CCCCCCCCCCCCNC(=O)c1cccc(Sc2c(Nc3cc(C(=O)NCCCCCCCCCCCC)ccc3Cl)nn(-c3c(Cl)cc(Cl)cc3Cl)c2OC(=O)CCC)c1 | 111 to 113 °C |
| O=C(NCCCCCCCCCCCCNC(=O)C(O)C(O)C(OC1OC(CO)C(O)C(O)C1O)C(O)CO)C(O)C(O)C(OC1OC(CO)C(O)C(O)C1O)C(O)CO (stereo not drawn) | 79 to 81 °C |
| CC(=O)OCC(CNC(=O)c1c(I)c(C(=O)NCC(COC(C)=O)OC(C)=O)c(I)c(N2CCCC(Br)C2=O)c1I)OC(C)=O (stereo not drawn) | 232 to 235 °C |
| COc1cccc(Sc2cc3c(cc2Sc2cccc(OC)c2)C(=O)c2c(c(O)c4cc(Sc5cccc(OC)c5)c(Sc5cccc(OC)c5)cc4c2O)C3=O)c1 | 287 to 292 °C |
| Cc1nc(C(=O)Cl)c(C)o1 | 37.7 °C |
| CCC(C)C=O (stereo not drawn) | -60 °C |
| CC(CCCCCCCCCCCCc1scc(Br)c1Br)C(=O)C(C)CCCCCCCCCCCCc1scc(Br)c1Br (stereo not drawn) | 50 to 52 °C |
| O=C(OCC(OC(=O)C1CCCCC1)C(OC(=O)C1CCCCC1)C(OC(=O)C1CCCCC1)C(COC(=O)C1CCCCC1)OC(=O)C1CCCCC1)C1CCCCC1 (stereo not drawn) | 135 to 140 °C |
| Cc1cc(Cc2ccc(O)c(C(c3cc(C)c(O)cc3C)c3cc(C)c(O)cc3C)c2)c(O)c(Cc2ccc(O)c(C(c3cc(C)c(O)cc3C)c3cc(C)c(O)cc3C)c2)c1 | 276 °C |
| COc1cc(OC)c(C=CC(c2ccc(OC)c(NC(=O)CCl)c2)S(=O)(=O)C(C=Cc2c(OC)cc(OC)cc2OC)c2ccc(OC)c(NC(=O)CCl)c2)c(OC)c1 (stereo not drawn) | 163 to 165 °C |
| CC(COC(=O)CCc1cc(C(C)(C)C)c(O)c(C(C)(C)C)c1)(COC(=O)CCc1cc(C(C)(C)C)c(O)c(C(C)(C)C)c1)COC(=O)CCc1cc(C(C)(C)C)c(O)c(C(C)(C)C)c1 | 55 to 78 °C |
| CCCCCCCCCCCCN(c1nc(NCC(O)C2CC(C)(C)NC(C)(C)C2)nc(NCC(O)C2CC(C)(C)NC(C)(C)C2)n1)c1nc(NCC(O)C2CC(C)(C)NC(C)(C)C2)nc(NCC(O)C2CC(C)(C)NC(C)(C)C2)n1 (stereo not drawn) | 106 to 110 °C |
| CCCCC(Cc1cc(C(C)(C)C)c(O)c(C(C)(C)C)c1)(C(=O)OC1CC(C)(C)N(OC2CCCCC2)C(C)(C)C1)C(=O)OC1CC(C)(C)N(OC2CCCCC2)C(C)(C)C1 | 184 to 185 °C |
| CC(C)c1ccc(S(=O)(=O)OC(c2cc(C(OS(=O)(=O)c3ccc(C(C)C)cc3)(C(F)(F)F)C(F)(F)F)cc(C(OS(=O)(=O)c3ccc(C(C)C)cc3)(C(F)(F)F)C(F)(F)F)c2)(C(F)(F)F)C(F)(F)F)cc1 | 105 °C |
| CCCCC1(CC)CS(=O)(=O)c2ccc(N(C)C)cc2C(c2cccc(NC(=O)COCCOCC(=O)NCc3ccc(N4C(=O)C(CCC(O)c5ccc(F)cc5)C4c4ccc(OC)cc4)cc3)c2)C1O (stereo not drawn) | 116 to 125 °C |
| CC(=O)OCC(COC(C)=O)NC(=O)c1c(I)c(C(=O)NC(COC(C)=O)COC(C)=O)c(I)c(N2CCC(Br)C2=O)c1I (stereo not drawn) | 232 to 234 °C |
| CC(=O)OCC(COC(C)=O)NC(=O)c1c(I)c(C(=O)NC(COC(C)=O)COC(C)=O)c(I)c(N2C(=O)OCC2CO)c1I (stereo not drawn) | 235 to 240 °C |

Next, values leading:

| melting point | SMILES |
| --- | --- |
| 92 to 94 °C | CN(C)C(=O)c1cc2c(nc(C3CC3)n2C)c(O)c1CCC(O)c1ccccc1 (stereo not drawn) |
| 130 to 132 °C | CC(C)CC1C(=O)OC(Cc2ccccc2)C(=O)N(C)C(CC(C)C)C(=O)OC(C)CN(C)C(CC(C)C)C(=O)OC(Cc2ccccc2)C(=O)N(C)C(CC(C)C)C(=O)OC(C)CN1C (stereo not drawn) |
| 283 to 285 °C | O=c1[nH]c(=Cc2ccc(OCc3ccccc3)cn2)c(=O)[nH]c1=Cc1ccc(OCc2ccccc2)cn1 |
| 118 to 119 °C | CC(C)CCCC(C)C1CCC2C3CC=C4CC(NCCCNC(=O)CCNC(=O)CCNC(=O)CCCCCNc5ccc([N+](=O)[O-])cc5[N+](=O)[O-])CCC4(C)C3CCC12C (stereo not drawn) |
| 150 to 152 °C | COc1cccc2c1CC[C@@H](C(=O)O)C2 |
| 159 to 160 °C | COCCOc1ccc(/C=C(\C)C(=O)NS(=O)(=O)CC(F)(F)F)c(Oc2ncc(C(F)(F)F)cc2Cl)c1 |
| 170 to 173 °C | CS(=N)(=O)c1ccc(Nc2ncc(Br)c(Cl)n2)cc1 (racemic) |
| 227 to 228 °C | CCC1=C(C#N)c2cc3c(c(O)c2CC1)C(=O)c1c(O)cccc1C3=O |
| 60 °C | O=S(=O)(Cl)Cc1cccc(C(F)(F)F)c1 |
| 155 to 165 °C | CCCCCCCCCCCCCC(=O)Nc1ccc(Cl)c(NC2=NN(c3c(Cl)cc(Cl)cc3Cl)C(=O)C2Sc2nnnn2-c2cccc(C(=O)O)c2)c1 (stereo not drawn) |
| 128 °C | Oc1ccccc1N1CCOCC1 |
| 210 to 212 °C | CCCCc1nn(-c2cc(NC(=O)c3ccccc3)ccc2C(F)(F)F)c(=O)n1Cc1ccc(-c2ccccc2S(=O)(=O)NC(=O)c2ccccc2Cl)cc1F |
| 73 to 75 °C | CCCC(=O)C(=CNc1ccc(COC(=O)c2ccccc2)cc1)C(=O)OCC |
| 142 to 144 °C | O=C(O)CCOC1COCCCC=CC2CC2(C(=O)NS(=O)(=O)C2CC2)NC(=O)C2(NC(=O)Nc3ccccc3)CC(OC(=O)N(CCC(=O)O)c3ccccc3)CN2C1=O (stereo not drawn) |
| 0 °C | CN(C)c1ccccn1 |
| 142 to 144 °C | Cc1cccc(-c2cc3ccccc3c(Cl)n2)n1 |
| 115 to 117 °C | Cc1cc(C)c2cccc(OCc3c(Cl)ccc(S(=O)(=O)N4CCC[C@H]4C(=O)NC4CCN(C(=O)CCN(C=NC(=O)OC(C)(C)C)NC(=O)OC(C)(C)C)CC4)c3Cl)c2n1 |
| 142 to 145 °C | Cc1ccc(S(=O)(=O)N2CCN(S(=O)(=O)c3ccc(C)cc3)CCN(S(=O)(=O)c3ccc(C)cc3)CC(CC(C)C)N(S(=O)(=O)c3ccc(C)cc3)CCN(S(=O)(=O)c3ccc(C)cc3)CC2)cc1 (stereo not drawn) |
| 218 to 221 °C | COc1ccc([N+](=O)[O-])cc1C(/C=C/c1ccc(I)cc1)S(=O)(=O)C(/C=C/c1ccc(I)cc1)c1cc([N+](=O)[O-])ccc1OC (stereo not drawn) |

| melting point | SMILES |
| --- | --- |
| 150 to 152 °C | [C-]#[N+]C(=CC=C1C=C(c2ccccc2)C=C(c2ccccc2)O1)C(=O)OCC |
| 42.1 to 43.1 °C | FC(F)(F)C(F)(F)C(F)(F)C(F)(F)C(F)(F)C(F)(F)CCc1ccc(P(c2ccccc2)c2ccc(CCC(F)(F)C(F)(F)C(F)(F)C(F)(F)C(F)(F)C(F)(F)F)cc2)cc1 |
| 209 to 211 °C | CCOC(=O)C=Cc1cc2cc(OC)ccc2[nH]c1=O |
| 150 to 152 °C | CCC(=O)OC1(C(=O)C(O)OC(=O)C(NC(=O)C2CCCN2C(=O)C(C)NC(=O)C(C)NC(=O)N(c2ccccc2)c2ccccc2)C(C)C)CCC2C3CC(C)C4=CC(=O)C=CC4(C)C3C(O)CC21C (stereo not drawn) |
| 223 to 224 °C | CCn1cc(C(=O)N[C@@H]2C(=O)N[C@@H]2C(=O)OC)c(=O)c2ccc(C)nc21 (relative stereo) |
| 153 to 159 °C | COc1ccc(-c2cc(C(=O)NCCCCCCc3ccccc3)cc(-c3cccc(C(F)(F)F)c3)c2OCC(=O)O)cc1 |
| 220 to 222 °C | CCCc1nc(OC)c(NC(=O)N2CCN(c3cc(OC)cc(OC)c3)CC2)cc1C(=O)NC(C)C(=O)Nc1cc(CO)cc(Nc2c3ccccc3nc3ccccc23)c1 (stereo not drawn) |
| 188 to 192 °C | CCc1c(CCNC(=O)CCC(=O)CCC(=O)NCCc2ccc(OCc3ccccc3)c(OCc3ccccc3)c2CC)ccc(OCc2ccccc2)c1OCc1ccccc1 |
| 144 °C | CCC(Cc1c(I)cc(I)c(NC(=O)CCCCCNC(=O)C(COCc2ccccc2)N2CCNCCNCCNCC2)c1I)C(=O)O (stereo not drawn) |
| 87.5 °C | ON=C(Cl)c1ccc(Cl)cc1 |
| 153 to 158 °C | CCCCCCc1cc(C=C2C(=O)N(CC(CC)CCCC)C(=O)C(C#N)=C2C)sc1-c1ccc(-c2ccc(-c3sc(-c4ccc(N(c5ccccc5)c5ccccc5)cc4)cc3CCCCCC)s2)s1 (stereo not drawn) |
| 174 to 176 °C | COc1cc(OC)c(/C=C/C(c2ccc(OC)c(NC(=N)N)c2)S(=O)(=O)C(/C=C/c2c(OC)cc(OC)cc2OC)c2ccc(OC)c(NC(=N)N)c2)c(OC)c1 (stereo not drawn) |
| 192 to 195 °C | COc1ccc(Br)cc1S(=O)(=O)Nc1onc(C)c1Br |
| 157 to 159 °C | CC(C)COc1c(-c2ccc(S(N)(=O)=O)c(F)c2)cnn(-c2cccc(Cl)c2)c1=O |
| 169 to 170 °C | O=C(Nc1ccc(Br)cc1)OC1CCCNC1 (stereo not drawn) |
| 223 to 226 °C | O=P(Oc1c(Br)cc(Br)cc1Br)(Oc1c(Br)cc(Br)cc1Br)Oc1c(Br)cc(Br)cc1Br |
| 112 to 114 °C | O=[N+]([O-])c1ccccc1N1CCc2cc(Br)ccc21 |
| 130 °C | CCN(CC)CCN=S(=O)(c1ccccc1)c1cccnc1 (stereo not drawn) |
